# Several values for one entry are separate records, joined by “and”; a condition that tells them apart may be missing. Equal entries are not always repeated.
# Experiments:
# CYP2C9 = target: T1, CYP2C9 (Homo sapiens, UniProt P11712); experiment: Metabolic assay, cocktail substrate method (diclofenac to 4’-hydroxydiclofenac); format: in vitro ADME; conditions: for Enzyme activity, Mean: mean of Well-1 to Well-4
# T1 construct: host or cells: PXB-cells (icHep: JFC, HUM181001B; sandwich culture: JFC)
# T1 sequence (P11712 whole entry): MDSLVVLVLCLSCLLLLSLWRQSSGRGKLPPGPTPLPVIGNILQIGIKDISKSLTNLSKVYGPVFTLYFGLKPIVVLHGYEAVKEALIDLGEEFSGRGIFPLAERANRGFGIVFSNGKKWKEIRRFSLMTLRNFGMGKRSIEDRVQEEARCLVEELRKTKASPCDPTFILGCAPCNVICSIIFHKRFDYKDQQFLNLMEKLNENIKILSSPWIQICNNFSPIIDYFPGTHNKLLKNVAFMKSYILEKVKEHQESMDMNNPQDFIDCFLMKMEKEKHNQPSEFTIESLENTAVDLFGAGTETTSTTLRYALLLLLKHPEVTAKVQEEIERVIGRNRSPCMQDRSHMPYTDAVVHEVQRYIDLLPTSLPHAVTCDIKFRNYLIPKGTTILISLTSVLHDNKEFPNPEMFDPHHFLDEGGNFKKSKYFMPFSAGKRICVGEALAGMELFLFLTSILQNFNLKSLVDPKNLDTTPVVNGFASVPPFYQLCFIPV
# Method: (§1) The metabolic activity of icHep and sandwich-cultured PXB-cells was measured using the cocktail substrate method of drug-metabolizing enzymes. The components of the cocktail are summarized in Supplementary Table 1. Assays were initiated by treating cells with TB containing cocktail substrates. Time point of each substrate was set when a linear increase in its metabolite production was observed. Concentrations of metabolites produced in the medium were measured by liquid chromatography-mass spectrometry (LC-MS/MS).
# CYP2B6 = target: T2, CYP2B6 (Homo sapiens, UniProt P20813); experiment: Metabolic assay, cocktail substrate method (bupropion to hydroxybupropion); format: in vitro ADME; conditions: for Enzyme activity, Mean: mean of Well-1 to Well-4
# T2 construct: host or cells: PXB-cells (icHep: JFC, HUM181001B; sandwich culture: JFC)
# T2 sequence (P20813 1-491): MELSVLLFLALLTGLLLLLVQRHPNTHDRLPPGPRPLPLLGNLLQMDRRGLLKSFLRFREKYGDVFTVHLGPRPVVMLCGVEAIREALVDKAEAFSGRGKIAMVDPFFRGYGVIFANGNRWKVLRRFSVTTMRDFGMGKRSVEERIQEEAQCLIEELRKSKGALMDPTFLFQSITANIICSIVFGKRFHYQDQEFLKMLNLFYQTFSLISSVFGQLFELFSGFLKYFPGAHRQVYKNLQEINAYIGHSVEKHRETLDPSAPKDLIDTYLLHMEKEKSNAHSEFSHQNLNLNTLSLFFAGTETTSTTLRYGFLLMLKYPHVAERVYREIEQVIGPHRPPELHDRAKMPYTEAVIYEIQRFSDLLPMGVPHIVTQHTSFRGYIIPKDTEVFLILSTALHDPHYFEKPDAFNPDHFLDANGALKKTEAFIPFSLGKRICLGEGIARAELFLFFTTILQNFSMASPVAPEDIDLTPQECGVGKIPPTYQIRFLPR
# Method: as §1
# [1] = PXB-cells (JFC), incubation time 15 min, single wells
# [2] = PXB-cells (JFC), incubation time 45 min, single wells
# [3] = PXB-cells (JFC), incubation time 60 min, single wells
# [4] = PXB-cells (JFC), incubation time 90 min, single wells
# [5] = icHep (HUM18100B), incubation time 15 min, single wells
# [6] = icHep (HUM18100B), incubation time 30 min, single wells
# [7] = icHep (HUM18100B), incubation time 45 min, single wells
# [8] = icHep (HUM18100B), incubation time 60 min, single wells
# [9] = icHep (HUM18100B), incubation time 90 min, single wells
# [10] = icHep (HUM18100B), rate per single well
# [11] = icHep (JFC), incubation time 15 min, single wells
# [12] = icHep (JFC), incubation time 30 min, single wells
# [13] = icHep (JFC), incubation time 45 min, single wells
# [14] = icHep (JFC), incubation time 60 min, single wells
# [15] = icHep (JFC), incubation time 90 min, single wells
# [16] = icHep (JFC), rate per single well
smiles,measurement,setting,value
O=C(O)Cc1ccccc1Nc1c(Cl)cc(O)cc1Cl [4'-Hydroxydiclofenac],Enzyme activity,CYP2C9; [1],32.4909 pmol/106 cells and 28.9867 pmol/106 cells and 32.417 pmol/106 cells and 39.4949 pmol/106 cells
same,Enzyme activity,CYP2C9; [2],103.35 pmol/106 cells and 157.866 pmol/106 cells and 142.816 pmol/106 cells and 89.3242 pmol/106 cells
same,Enzyme activity,CYP2C9; [3],194.793 pmol/106 cells and 123.239 pmol/106 cells and 152.615 pmol/106 cells and 131.028 pmol/106 cells
same,Enzyme activity,CYP2C9; [4],221.365 pmol/106 cells and 186.616 pmol/106 cells and 184.241 pmol/106 cells and 181.726 pmol/106 cells
same,"Enzyme activity, Mean",CYP2C9; PXB-cells (JFC),3.17 pmol/min/106 cells
same,Enzyme activity,CYP2C9; [5],62.619 pmol/106 cells and 66.4901 pmol/106 cells and 58.8292 pmol/106 cells and 61.6593 pmol/106 cells
same,Enzyme activity,CYP2C9; [6],81.779 pmol/106 cells and 78.031 pmol/106 cells and 78.5116 pmol/106 cells and 74.8686 pmol/106 cells
same,Enzyme activity,CYP2C9; [7],182.486 pmol/106 cells and 164.871 pmol/106 cells and 179.779 pmol/106 cells and 151.258 pmol/106 cells
same,Enzyme activity,CYP2C9; [8],261.919 pmol/106 cells and 224.09 pmol/106 cells and 240.209 pmol/106 cells and 233.857 pmol/106 cells
same,Enzyme activity,CYP2C9; [9],338.304 pmol/106 cells and 344.261 pmol/106 cells and 316.721 pmol/106 cells and 314.843 pmol/106 cells
same,"Enzyme activity, Mean",CYP2C9; icHep (HUM18100B),5.39 pmol/min/106 cells
same,Enzyme activity,CYP2C9; [10],6.00 pmol/min/106 cells and 4.87 pmol/min/106 cells and 5.39 pmol/min/106 cells and 5.30 pmol/min/106 cells
same,Enzyme activity,CYP2C9; [11],37.2763 pmol/106 cells and 45.1543 pmol/106 cells and 35.8326 pmol/106 cells and 34.722 pmol/106 cells
same,Enzyme activity,CYP2C9; [12],59.5169 pmol/106 cells and 77.189 pmol/106 cells and 52.7871 pmol/106 cells and 61.7238 pmol/106 cells
same,Enzyme activity,CYP2C9; [13],104.976 pmol/106 cells and 107.851 pmol/106 cells and 132.309 pmol/106 cells and 91.4661 pmol/106 cells
same,Enzyme activity,CYP2C9; [14],189.516 pmol/106 cells and 192.792 pmol/106 cells and 199.605 pmol/106 cells and 200.079 pmol/106 cells
same,Enzyme activity,CYP2C9; [15],261.512 pmol/106 cells and 227.854 pmol/106 cells and 218.992 pmol/106 cells and 224.098 pmol/106 cells
same,"Enzyme activity, Mean",CYP2C9; icHep (JFC),4.42 pmol/min/106 cells
same,Enzyme activity,CYP2C9; [16],4.33 pmol/min/106 cells and 3.85 pmol/min/106 cells and 4.89 pmol/min/106 cells and 4.61 pmol/min/106 cells
C[C@H]1NC(C)(C)CO[C@]1(O)c1cccc(Cl)c1 [Hydroxybupropion],Enzyme activity,CYP2B6; [1],28.7722 pmol/106 cells and 21.7302 pmol/106 cells and 27.8435 pmol/106 cells and 35.831 pmol/106 cells
same,Enzyme activity,CYP2B6; [2],59.3541 pmol/106 cells and 57.6847 pmol/106 cells and 69.4473 pmol/106 cells and 46.5889 pmol/106 cells
same,Enzyme activity,CYP2B6; [3],62.0864 pmol/106 cells and 73.8816 pmol/106 cells and 59.3241 pmol/106 cells and 58.6637 pmol/106 cells
same,Enzyme activity,CYP2B6; [4],76.5226 pmol/106 cells and 51.4054 pmol/106 cells and 51.8001 pmol/106 cells and 50.3819 pmol/106 cells
same,"Enzyme activity, Mean",CYP2B6; PXB-cells (JFC),0.991 pmol/min/106 cells
same,Enzyme activity,CYP2B6; [5],25.5794 pmol/106 cells and 30.4047 pmol/106 cells and 24.7422 pmol/106 cells and 24.915 pmol/106 cells
same,Enzyme activity,CYP2B6; [6],35.9071 pmol/106 cells and 54.335 pmol/106 cells and 43.958 pmol/106 cells and 62.1937 pmol/106 cells
same,Enzyme activity,CYP2B6; [7],67.877 pmol/106 cells and 59.438 pmol/106 cells and 65.4881 pmol/106 cells and 59.5632 pmol/106 cells
same,Enzyme activity,CYP2B6; [8],76.2731 pmol/106 cells and 66.7099 pmol/106 cells and 66.2746 pmol/106 cells and 64.1847 pmol/106 cells
same,Enzyme activity,CYP2B6; [9],84.2201 pmol/106 cells and 81.8175 pmol/106 cells and 75.5651 pmol/106 cells and 70.6836 pmol/106 cells
same,"Enzyme activity, Mean",CYP2B6; icHep (HUM18100B),1.22 pmol/min/106 cells
same,Enzyme activity,CYP2B6; [10],1.41 pmol/min/106 cells and 0.968 pmol/min/106 cells and 1.36 pmol/min/106 cells and 1.15 pmol/min/106 cells
same,Enzyme activity,CYP2B6; [11],26.9509 pmol/106 cells and 26.6361 pmol/106 cells and 28.1971 pmol/106 cells and 21.5678 pmol/106 cells
same,Enzyme activity,CYP2B6; [12],50.8052 pmol/106 cells and 52.8459 pmol/106 cells and 41.4458 pmol/106 cells and 41.1487 pmol/106 cells
same,Enzyme activity,CYP2B6; [13],61.1962 pmol/106 cells and 63.9863 pmol/106 cells and 63.4142 pmol/106 cells and 59.0445 pmol/106 cells
same,Enzyme activity,CYP2B6; [14],56.6821 pmol/106 cells and 56.5302 pmol/106 cells and 54.8514 pmol/106 cells and 60.04 pmol/106 cells
same,Enzyme activity,CYP2B6; [15],69.6732 pmol/106 cells and 73.6155 pmol/106 cells and 56.0547 pmol/106 cells and 49.9876 pmol/106 cells
same,"Enzyme activity, Mean",CYP2B6; icHep (JFC),1.20 pmol/min/106 cells
same,Enzyme activity,CYP2B6; [16],1.14 pmol/min/106 cells and 1.25 pmol/min/106 cells and 1.17 pmol/min/106 cells

# From article PMC10444810, “Induction of open-form bile canaliculus formation by hepatocytes for evaluation of biliary drug excretion” (Communications Biology, 2023)
